Experimental data taken from ChEMBL document CHEMBL1201862, “PubChem BioAssay data set” (2004).
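Method: 48-hour compound exposure of cells in 96-well plates, five concentrations, linear interpolation of endpoints. Here, GI50 denotes the concentration required for 50% inhibition of growth.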 The source made the active and inactive calls. Cut-off read from the data, not from the text of the source: active = GI50 up to about 1.1 µM and inactive = higher.

Assays:
Assay in all cases: NCI anticancer screen, dose series, 48 h
A498 = system: A498
CAKI-1 = system: CAKI-1
DMS-114 = system: DMS-114
HL-60 = system: HL-60
KM-20L2 = system: KM-20L2
LOX IMVI = system: LOX IMVI
LXFL 529 = system: LXFL 529
M19-MEL = system: M19-MEL
NCI-H226 = system: NCI-H226
NCI-H23 = system: NCI-H23
NCI-H460 = system: NCI-H460
SF-268 = system: SF-268
SF-295 = system: SF-295
SF-539 = system: SF-539
SK-MEL-28 = system: SK-MEL-28
SK-MEL-5 = system: SK-MEL-5
SK-OV-3 = system: SK-OV-3
Hs-578T = system: Hs-578T
MCF7 = system: MCF7
PC-3 = system: PC-3

With `CC1=NOC(=O)/C1=C/c1cccc2ccccc12` the GI50 (A498) was > 100 µM (inactive), the GI50 (CAKI-1) was > 100 µM (inactive) and the GI50 (DMS-114) was > 100 µM (inactive). For the same molecule, the GI50 (HL-60) was > 100 µM (inactive), the GI50 (KM-20L2) was > 100 µM (inactive) and the GI50 (LOX IMVI) was > 100 µM (inactive). For the same molecule, the GI50 (LXFL 529) was > 100 µM (inactive), the GI50 (M19-MEL) was > 100 µM (inactive) and the GI50 (NCI-H226) was > 100 µM (inactive). For the same molecule, the GI50 (NCI-H23) was > 100 µM (inactive), the GI50 (NCI-H460) was > 100 µM (inactive) and the GI50 (SF-268) was > 100 µM (inactive). For the same molecule, the GI50 (SF-295) was > 100 µM (inactive), the GI50 (SF-539) was > 100 µM (inactive) and the GI50 (SK-MEL-28) was > 100 µM (inactive). The GI50 (SK-MEL-5) was > 100 µM (inactive) and the GI50 (SK-OV-3) was > 100 µM (inactive).
In the case of `Cc1ccccc1NC(=O)C(=O)CC(=O)C1CCOC1=O` (stereo unspecified), the GI50 (A498) is reported as > 100 µM (inactive), the GI50 (CAKI-1) is reported as > 100 µM (inactive) and the GI50 (DMS-114) is reported as > 100 µM (inactive). The GI50 (HL-60) was > 100 µM (inactive), the GI50 (KM-20L2) was > 100 µM (inactive) and the GI50 (LOX IMVI) was > 100 µM (inactive). For the same molecule, the GI50 (LXFL 529) was > 100 µM (inactive), the GI50 (M19-MEL) was > 100 µM (inactive) and the GI50 (NCI-H226) was > 100 µM (inactive). For the same molecule, the GI50 (NCI-H23) was > 100 µM (inactive), the GI50 (NCI-H460) was > 100 µM (inactive) and the GI50 (SF-268) was > 100 µM (inactive). The GI50 (SF-295) was > 100 µM (inactive), the GI50 (SF-539) was > 100 µM (inactive) and the GI50 (SK-MEL-28) was > 100 µM (inactive). The GI50 (SK-MEL-5) was > 100 µM (inactive) and the GI50 (SK-OV-3) was > 100 µM (inactive).
`COC(=O)c1nc(NN)cc(O)c1CCCCCc1c(O)nc(NN)nc1C(=O)OC` was tested, and the GI50 (A498) was > 100 µM (inactive), the GI50 (CAKI-1) was > 100 µM (inactive) and the GI50 (DMS-114) was > 95.1 µM (inactive). The GI50 (HL-60) was > 100 µM (inactive), the GI50 (KM-20L2) was > 100 µM (inactive) and the GI50 (LOX IMVI) was > 100 µM (inactive). The GI50 (LXFL 529) was > 100 µM (inactive), the GI50 (M19-MEL) was > 100 µM (inactive) and the GI50 (NCI-H226) was > 100 µM (inactive). For the same molecule, the GI50 (NCI-H23) was > 100 µM (inactive), the GI50 (NCI-H460) was > 100 µM (inactive) and the GI50 (SF-268) was > 100 µM (inactive). The GI50 (SF-295) was > 100 µM (inactive), the GI50 (SF-539) was > 100 µM (inactive) and the GI50 (SK-MEL-28) was > 100 µM (inactive). The GI50 (SK-MEL-5) was > 100 µM (inactive) and the GI50 (SK-OV-3) was > 100 µM (inactive).
With `C#Cc1cccc(N2C(=O)CCC2=O)c1` the GI50 (A498) was 15.6 µM (inactive), the GI50 (CAKI-1) was 13.6 µM (inactive) and the GI50 (DMS-114) was 14.8 µM (inactive). The GI50 (HL-60) was 2.25 µM (inactive), the GI50 (Hs-578T) was 17.3 µM (inactive) and the GI50 (KM-20L2) was 25.8 µM (inactive). For the same molecule, the GI50 (LOX IMVI) was 16.8 µM (inactive), the GI50 (LXFL 529) was 11.1 µM (inactive) and the GI50 (M19-MEL) was 19.5 µM (inactive). The GI50 (MCF7) was 19.4 µM (inactive), the GI50 (NCI-H226) was 17.5 µM (inactive) and the GI50 (NCI-H23) was 14.7 µM (inactive). The GI50 (NCI-H460) was 27.5 µM (inactive), the GI50 (PC-3) was 15.2 µM (inactive) and the GI50 (SF-268) was 17.7 µM (inactive). The GI50 (SF-295) was 15.6 µM (inactive), the GI50 (SF-539) was 21.5 µM (inactive) and the GI50 (SK-MEL-28) was 18.1 µM (inactive). The GI50 (SK-MEL-5) was 20.5 µM (inactive) and the GI50 (SK-OV-3) was 21 µM (inactive).
With `C/C1=C\[C@@H](O)C(=O)/C=C/C=C\c2csc(n2)[C@@H](C)NC(=O)C[C@@]2(CC1)[S+]([O-])SC(=O)[C@]2(C)O` (stereo partly specified) [LEINAMYCIN] the GI50 (A498) was 0.01 µM (active), the GI50 (CAKI-1) was 0.00133 µM (active) and the GI50 (DMS-114) was 0.0353 µM (active). The GI50 (HL-60) was 0.000752 µM (active), the GI50 (Hs-578T) was 0.0337 µM (active) and the GI50 (KM-20L2) was 0.0881 µM (active). The GI50 (LOX IMVI) was 0.0116 µM (active), the GI50 (LXFL 529) was 0.0139 µM (active) and the GI50 (M19-MEL) was 0.0344 µM (active). For the same molecule, the GI50 (MCF7) was 0.000499 µM (active), the GI50 (NCI-H226) was 0.206 µM (active) and the GI50 (NCI-H23) was 0.00594 µM (active). The GI50 (NCI-H460) was 0.00986 µM (active), the GI50 (PC-3) was 0.0128 µM (active) and the GI50 (SF-268) was 0.0272 µM (active). For the same molecule, the GI50 (SF-295) was 0.0446 µM (active), the GI50 (SF-539) was 0.00968 µM (active) and the GI50 (SK-MEL-28) was 0.0214 µM (active). For the same molecule, the GI50 (SK-MEL-5) was 0.00673 µM (active) and the GI50 (SK-OV-3) was 0.138 µM (active).
